Here are results for 29 compounds from PubChem BioAssay (NCI).

Experiment in all cases: inhibition of tumour cell growth, NCI panel, 48 h
Assay [1] concerns A549 NSCLC.
For assay [2], the system named is BT-549 breast.
For assay [3], the system named is EKVX NSCLC.
Assay [4] concerns HCT-15 colon.
For assay [5], the system named is HL-60(TB) leukemia.
Assay [6] has as its system M14 melanoma.
Assay [7] deals with OVCAR-5 ovarian.
In assay [8] the test system is SF-295 CNS.
The test system of assay [9] is SN12C renal.
The test system of assay [10] is K-562 leukemia.
The subject of assay [11] is SR leukemia.

Each structure is given as a SMILES string.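 Step 1: Grow cells in 96-well plates. Step 2: Expose to compound for 48 hours at 5 concentrations. Step 3: Interpolate endpoints linearly; if unreached, use highest concentration. The concentration for 50% growth inhibition is given as GI50. At the TGI there is no net growth.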 Where only a bound is given, the exact number is not on record here.

On to `CC1=C(C2=C(C)C(=O)C(=O)c3cc(C)ccc32)c2ccc(C)cc2C(=O)C1=O`, for which the TGI in [1] is 2.73 µM; in assay [2] it was 0.374 µM; in [3], 0.686 µM; in assay [4] it was greater than 100 µM; in assay [5] it was greater than 100 µM; in assay [6], 0.349 µM. The values for the TGI in assay [7], in assay [8] and in assay [9] were 0.45 µM, 0.373 µM and 0.314 µM, respectively.
As to `O=C(CSc1nnc(Cc2ccccc2)o1)Nc1ccc(Cl)cc1`, the TGI was greater than 100 µM in assay [1]; 92.4 µM in assay [3]; greater than 100 µM in assay [4]; greater than 100 µM in assay [5]; greater than 100 µM in assay [10]; greater than 100 µM in assay [6]. For the same compound, the TGI in assay [7], in assay [8] and in [9] was greater than 100 µM throughout.
For `CN(C)C(=O)CC(C(=O)O)c1c[nH]c2ccccc12` (centres undefined), the TGI in assay [1], in assay [3], in [4], in [5], in assay [10] and in assay [6] was greater than 100 µM throughout. In addition, the TGI in assay [8], in assay [9] and in assay [11] was greater than 100 µM each time.
For `NC1CC2C3CCC2C1C3=O` (centres undefined), the TGI in assay [1], in [3], in assay [4], in assay [5], in assay [10] and in assay [6] was greater than 100 µM throughout. Further, the TGI in assay [7], in assay [8], in assay [9] and in [11] was greater than 100 µM throughout.
In the case of `NC(=O)N/N=C(\Cc1nc2ccc(C(=O)c3ccccc3)cc2[nH]c1=O)C(=O)Nc1ccc(Br)cc1`, the TGI in [1], in assay [3], in assay [4], in assay [5], in [10] and in assay [6] was greater than 100 µM throughout. In addition, the TGI in [7], in assay [8], in assay [9] and in [11] was greater than 100 µM throughout.
`Nc1nc2c(ncn2CCOC(c2ccccc2)P(=O)(O)O)c(=O)[nH]1` (centres undefined): the TGI in [1], in assay [3], in assay [4], in assay [5], in assay [7] and in [8] was greater than 100 µM in each case. Besides, the TGI in [9] and in assay [11] was greater than 100 µM each time.
For the compound `COC(=O)[C@@H]1c2cc3c(c(O)c2[C@@H](OC)C[C@@]1(C)O)C(=O)c1c(O)cc2c(c1C3=O)OC1O[C@@]2(C)[C@H](O)[C@@H](N(C)C)[C@@H]1O`, the TGI in assay [1] worked out at 1.45 µM; in assay [3] it was 1.33 µM; in [4], 2.23 µM; in assay [10], 7.31 µM; in [7], 2.16 µM; in assay [8], 0.97 µM. This compound came in with a TGI in [9] of 2.1 µM.
As for `N=c1c2c3n(c4c(=O)n(-c5ccccc5)c(=S)n(c(=O)n1-c1ccccc1)c24)CCCCC3`, the TGI in assay [1], in assay [2], in assay [3], in [4], in assay [5] and in assay [6] was greater than 100 µM each time. Also, the TGI in assay [7], in assay [8] and in assay [9] was greater than 100 µM each time.
As for `C=CC1OC(CCCOC(=O)C(C)(C)C)O[C@@H]1CC` (some centres undefined), the TGI in assay [1], in assay [3], in [4], in assay [5], in assay [6] and in assay [7] was greater than 100 µM in each case. Also, the TGI in assay [8], in assay [9] and in assay [11] was greater than 100 µM in each case.
`CN(C)c1ccc(/C=C/c2sc3ccc4ccccc4c3[n+]2C)cc1`: the GI50 is 0.692 µM in assay [4]; 0.33 µM in assay [5]; 0.199 µM in [10]; 0.395 µM in assay [8]; 0.359 µM in assay [9]. In addition, the TGI was greater than 31.5 µM in assay [4]; 1.18 µM in assay [5]; greater than 100 µM in assay [10]; 2.32 µM in assay [8]; 3.43 µM in assay [9].
In the case of `OC(c1cccs1)c1cc2ccccc2s1` (centres undefined), the TGI in assay [1], in assay [3], in [4], in assay [5], in assay [10] and in assay [6] was greater than 10 µM each time. Also, the TGI in [7], in assay [8], in assay [9] and in assay [11] was greater than 10 µM in each case.
Turning to `C=C(C)CCC1CCCCC(CN(C)C)C1=O` (centres undefined), the TGI in assay [1], in assay [3], in [4], in assay [5], in assay [10] and in [6] was greater than 100 µM in each case. Further, the TGI in assay [7], in assay [8], in [9] and in assay [11] was greater than 100 µM in each case.
As for `Cc1ccc(/C=C2\NC(=S)N(CN3CCOCC3)C2=O)cc1`, the TGI in assay [1], in assay [3], in assay [4], in [10], in assay [6] and in [7] was greater than 100 µM each time. In addition, the TGI in [8], in [9] and in [11] was greater than 100 µM each time.
For the compound `CN(C)CCNCc1c2ccccc2c(CNCCN(C)C)c2ccccc12`, the TGI in assay [1] is greater than 59.9 µM; in assay [3] it was greater than 100 µM; in assay [4] it was greater than 100 µM; in [5], 46.8 µM; in assay [10], greater than 100 µM; in assay [7] it was 43.5 µM. In addition, the TGI in assay [8] and in assay [9] was greater than 100 µM throughout.
`N#CCCC(CC#N)N1CCN(CCO)CC1` (centres undefined): the TGI in assay [1], in [3], in assay [4], in [5], in assay [10] and in assay [6] was greater than 100 µM in each case. Besides, the TGI in assay [7], in assay [8], in assay [9] and in assay [11] was greater than 100 µM each time.
Take `O=[N+]([O-])c1ccc(NC2OCC(O)C(O)C2O)cc1` (centres undefined): the TGI in [1], in [3], in assay [4], in assay [10], in assay [6] and in [8] was greater than 100 µM in each case. The TGI in [9] and in [11] was greater than 100 µM each time.
Take `O=S(=O)(O)CCS`: the TGI in [1], in assay [3], in assay [4], in assay [10], in [6] and in assay [7] was greater than 100 µM throughout. The TGI in assay [8], in [9] and in assay [11] was greater than 100 µM throughout.
`COc1ccc(/C(Cl)=C(\C=O)c2ccc(F)cc2)cc1`: the TGI is greater than 100 µM in assay [3]; 31.2 µM in assay [4]; 9.12 µM in [5]; greater than 100 µM in assay [10]; greater than 100 µM in assay [6]; 31.6 µM in [8]. This compound showed a TGI in assay [9] of 64.7 µM.
Turning to `O=[N+]([O-])c1ccc(/C=C/c2ccc(N=Nc3ccc(/C=C/c4ccc([N+](=O)[O-])cc4S(=O)(=O)O)c(S(=O)(=O)O)c3)cc2S(=O)(=O)O)c(S(=O)(=O)O)c1`, the TGI in assay [1], in assay [3], in assay [4], in assay [5], in assay [10] and in [7] was greater than 100 µM in each case. The TGI in assay [8] and in assay [9] was greater than 100 µM in each case.
In the case of `O=c1nc2n(cc1/C=C\Br)C1CC(O)C(CO2)O1` (centres undefined), the TGI in [1] was greater than 100 µM; in [2], greater than 100 µM; in assay [3], greater than 100 µM; in [4], greater than 100 µM; in assay [5], 54.8 µM; in [10] it was greater than 100 µM. For the same compound, the TGI in assay [7], in assay [8] and in assay [9] was greater than 100 µM throughout.
On to `COC1=CC(=O)C(O)=C(C[C@@]2(C)[C@@H]3CCC[C@H](COC(=O)CCCCCNC(=O)OC(C)(C)C)[C@@]3(C)CC[C@@H]2C)C1=O`, for which the TGI in [1], in assay [3], in assay [5], in assay [10], in assay [6] and in assay [7] was greater than 10 µM in each case. In addition, the TGI in assay [8], in [9] and in assay [11] was greater than 10 µM each time.
Consider `COC1(OC)N=C(N)C2(C#N)C(C)CC(=O)N(N(C)C)C12C#N` (centres undefined), for which the TGI in assay [1], in assay [3], in assay [4], in assay [5], in assay [10] and in assay [6] was greater than 100 µM throughout. Further, the TGI in [7], in assay [8], in [9] and in assay [11] was greater than 100 µM each time.
Take `CCOC(OCC)C(CC)[Se]c1ccccc1[N+](=O)[O-]` (centres undefined): the TGI was greater than 63.3 µM in assay [1]; greater than 100 µM in assay [3]; 22.2 µM in assay [4]; 3.22 µM in [5]; greater than 38.5 µM in assay [10]; 15.3 µM in assay [6]. The TGI in [7] was greater than 100 µM; in assay [8], greater than 22.9 µM; in [9], greater than 61.2 µM; in assay [11] it was greater than 40.1 µM.
Consider `Cn1c(C(C#N)c2cc(Cl)ncn2)nc2ccccc21` (centres undefined), for which the TGI in [1], in assay [2], in assay [3], in [4], in assay [6] and in assay [7] was greater than 100 µM throughout. In addition, the TGI in [8] and in assay [9] was greater than 100 µM throughout.
On to `CCSc1nc2sc(C)c(C)c2c(=O)n1-c1ccc(C(=O)O)cc1`, for which the TGI in assay [1], in [3], in assay [4], in assay [5], in [10] and in assay [6] was greater than 100 µM in each case. The TGI in assay [7], in [8], in assay [9] and in assay [11] was greater than 100 µM throughout.
For `Oc1ccc2c(c1)OCC(O)(c1ccccc1O)C2` (centres undefined), the TGI in [2], in assay [3], in assay [4], in assay [5], in [10] and in assay [6] was greater than 100 µM throughout. For the same compound, the TGI in assay [7], in assay [8] and in assay [9] was greater than 100 µM in each case.
With `C=C(C)C1Cc2c(cc(O)c3c(=O)c4ccccc4n(C)c23)O1` (centres undefined), the TGI is greater than 100 µM in assay [1]; greater than 100 µM in assay [4]; greater than 100 µM in [5]; 90.4 µM in assay [6]; greater than 100 µM in assay [7]; 79.6 µM in assay [8]. Further, the TGI in assay [9] and in [11] was greater than 100 µM throughout.
For `NC(=O)c1n[nH]n(-c2ccccc2)c1=O`, the TGI in assay [1], in [2], in [3], in assay [4], in assay [10] and in assay [6] was greater than 100 µM each time. For the same compound, the TGI in assay [7], in [8] and in [9] was greater than 100 µM throughout.
Consider `CC(SC(=S)N1CCCCC1)C(=O)Nc1nnc(-c2ccc(Cl)cc2)o1` (centres undefined), for which the TGI is greater than 100 µM in [1]; greater than 100 µM in [2]; greater than 100 µM in assay [4]; 23.1 µM in assay [5]; greater than 100 µM in assay [10]; 53.7 µM in assay [6]. In addition, the TGI is greater than 100 µM in assay [7] and 51.6 µM in [9].
